Reference: patent publication US4696920A, “Certain 2-substituted 1,3-propylidenediphosphonate derivatives, pharmaceutical compositions containing them and their use as antihypertensive agents” (priority 1984, dated 1987)

What was measured:
[1] = test system: mean blood pressure in rat; test: Acute intravenous hypotensive activity in anesthetized rats; type: in vivo, rat (male Wistar)
Experimental: Male Wistar rats were anesthetized with Pentobarbital (Nembutal, 60 mg/kg i.p.) and heparinized (5 mg/kg i.p.). After tracheotomy the right carotid was cannulated (catheter PE 50); blood pressure was measured with a pressure transducer (Statham P 23 db) and recorded on a polygraph (Beckman).
Animals received 0.5 and 1.5 mg/kg of the test compounds. Less than 100 μl of test compounds dissolved in 0.9% saline were injected in the jugular vein. Highly water insoluble compounds were suspended in 2% Tween-80. Injection of the vehicle alone had no detectable hypotensive effect.
Results presented are expressed as percent decrease in initial mean blood pressure (Mean±SEM).

[2] = test system: drug receptor sites associated with calcium channels; settings: known calcium antagonists; cited from earlier work
[3] = test system: calcium channel binding site for [^3 H]-Nitrendipine (rat brain membranes); test: [^3 H]-Nitrendipine binding to rat brain membranes; set-up: species or system rat (male Wistar); settings: Table 1a; for Specifically bound [^3 H]-Nitrendipine % of control value: compound concentration 1.0 μM; for Bound ^3 H at 1.0 μM / Bound ^3 H at 0.1 μM: ratio of [^3 H]-Nitrendipine bound at 1.0 and 0.1 μM compound
Experimental: (§1) Diltiazem hydrochloride was a generous gift from Goedecke A. G.
Suitable dilutions were made in 50 mM Tris-HCl buffer (pH 7.4) containing 150 mM NaCl and 1 mM CaCl2. The ethanol concentration in the final assay never exceeded 0.1%.
(§2) The purity of the radioligand and of the various agents tested was monitored by thin layer chromatography on silica gel plates.
(§3) The following procedure was adapted from Bellemann et al (Proc. Nat. Acad. Sci. 80, 2356, 1983), and Gould et al (Proc. Nat. Acad. Sci. 79, 3656, 1982).
(§4) Adult male Wistar rats weighing 250-300 g were anesthetized with carbon dioxide prior to decapitation. The brain was removed then immersed in ice-cold 0.32M sucrose and washed 2-3 times with fresh solution. Cerebral cortex was minced and homogenized (Potter-Elvehjem homogenizer) in 10 volumes of ice-cold sucrose solution. The homogenate was centrifuged (4° C.) at 1000×g for 15 minutes. The resulting supernatant was then centrifuged at 90000×g (30 minutes) and the pellet was washed twice with 20 ml ice-cold 50 mM Tris-HCl pH 7.4.
(§5) The final pellet was resuspended in 50 mM Tris-HCl pH 7.4/150 mM NaCl/1 mM CaCl2 to give a protein concentration of 4 mg/ml.
(§6) The membrane suspension was kept on ice until used. Binding assays were performed in subdued light to prevent dihydropyridine breakdown. Membrane protein (400 μg/tube) was incubated in 50 mM Tris-HCl buffer (pH 7.4)/150 mM NaCl/1 mM CaCl2 with the indicated concentrations of radioligand and test compounds or known calcium antagonists, in a total volume of 2 ml. After the indicated time intervals, the reaction was terminated by rapid filtration through Whatman GF/B glass fiber filters (2.4 cm diameter) on a Millipore filter holder. The assay tube was rinsed with 2 ml ice-cold 50 mM Tris-HCl pH (7.4) and the precipitate was further washed with 2×5 ml of the same buffer.
(§7) Filters were dried under a heat lamp and were extracted with 10 ml of liquid scintillation cocktail (Toluene/Triton X-100, 2/1 containing 4 g Omnifluor/1) prior to tritium determination at 48% counting efficiency.
(§8) Assays were performed in duplicate or triplicate.
(§9) Data were expressed as percent specific [^3 H]-Nitrendipine binding relative to the established control value.
(§10) Compound activity in the [^3 H]-Nitrendipine binding assay was evaluated by using the following criteria:
(§11) 1. [^3 H]-Nitrendipine binding at 1.0 μM compound final concentration was either below 95% or above 105% of the control value determined in absence of compound.
2. […] This ratio is indicative of a dose response relationship within the compound concentration range tested, when the value differs appreciably from 1.0.

[4] = test system: rat trachea contraction induced by KCl depolarization; test: KCl-induced rat trachea contraction; set-up: species or system rat (male SHR, Okamoto-Aoki); settings: for activity at 1 µM: Rattus norvegicus, 40 min, read-out: Contraction (% max.)
Experimental: Spontaneously hypertensive male rats (SHR) Okamoto-Aoki Strain, weighing 300-400 g were used in this study. They were killed by bleeding after Pentobarbital anesthesia (Nembutal, Abbott Co, 40 mg/kg). Their entire trachea was quickly removed and dissected free of fat and connective tissue in Krebs-Ringer solution. A strip (4 mm×40 mm), obtained by spirally cutting the trachea, was immediately suspended in a 50 ml Krebs-Ringer solution and continuously bubbled with a O2 /CO2 (95/5) mixture. Bath temperature was maintained at 37±1° C. The composition (mM) of the Krebs-Ringer solution modified by Nghiem, was as follows: NaCl, (118.0); KCl, (4.7); CaCl2, (2.5); MgCl2, (1.18); NaHCO3, (12.5); KH2 P04, (1.18); glucose, (5.5) in bidistilled water (pH 7.4). Each strip was equilibrated under initial tension (1.5-2 g) for 1-2 hours and the bath solution changed every 30 min. A contractile or relaxant response was isometrically measured with a force-displacement transducer (Ugo-Basile) and recorded on a polygraph (Beckman).
After equilibration, KCl was added to the bath at 65 mM final concentration. This concentration produced maximum trachea contraction. Under these conditions, a plateau phase showing a tonic sustained contraction was reached within 30 minutes. Drugs were added 30 minutes after the plateau phase has been reached (final concentration=1.0 μM). […] Recordings of the residual trachea contraction were made 40 minutes after drug addition to the bathing fluid. The initial KCl induced contraction was taken as the maximum KCl response (100%). Results were expressed as % of maximal contraction. Nifedipine, Prenylamine, Flunarizine and Diltiazem were used as reference standards to validate this assay.
All 1,3-diphosphonates and drugs were dissolved in saline (0.9% NaCl) except when water insoluble, then the compounds were dissolved in 2% ethanol. The final concentration of ethanol used has been shown not to interfere with the assay.
Results are expressed as mean values±SEM, the Student's t-test was used for statistical analysis.

[5] = test system: [^3 H]-PN-200 110 (dihydropyridine) binding site of calcium channel, rat brain membranes; test: [^3 H]-PN-200 110 binding to rat brain membranes; set-up: species or system rat (male Wistar); settings: Table 1b; for Specifically bound [^3 H]-PN-200 110 % of control value: compound concentration 1.0 μM; for Bound ^3 H at 1.0 μM / Bound ^3 H at 0.1 μM: ratio of [^3 H]-PN-200 110 bound at 1.0 and 0.1 μM compound
Experimental: as §1
Water insoluble compounds were dissolved in absolute ethanol to give 10 mM or 2.5 mM stock solutions. Suitable dilutions were made in 50 mM Tris-HCl buffer (pH 7.4) containing 150 mM NaCl and 1 mM CaCl2. The ethanol concentration in the final assay never exceeded 0.1%.
as §2, §3, §4, §5, §6, §7, §8, §9, §10, §11
2. The ratio obtained by dividing the amount of specifically found [^3 H]-Nitrendipine at 1.0 μM compound final concentration by the value obtained at 0.1 μM test compound, was smaller than 0.9 or greater than 1.1. This ratio is indicative of a dose response relationship within the compound concentration range tested, when the value differs appreciably from 1.0.
Note: In some experiments [^3 H]-PN200 110, a new and commercially available specific dihydropyridine was used instead of [^3 H]-Nitrendipine.

[6] = Rattus norvegicus, iv, read-out: Decrease in mean blood pressure (% pretest)

Row | SMILES | Specifically bound [^3 H]-Nitrendipine % of control value [3] | Bound ^3 H at 1.0 μM / Bound ^3 H at 0.1 μM [3] | inhibition in vivo at 0.5 mg/kg [1, 6] [%] | inhibition in vivo at 1.5 mg/kg [1, 6] [%] | further results
1 | C[C@H](CS)C(=O)N1CCC[C@H]1C(=O)O [Captopril, reference compound] | – | – | – | – | inhibition in vivo at 1 mg/kg [1, 6]: 0%
2 | C(=C\c1ccccc1)/CN1CCN(C(c2ccccc2)c2ccccc2)CC1 [Cinnarizine] | – | – | – | – | effect on [^3 H]-Nitrendipine binding (in words) [2]: reduce [^3 H]-Nitrendipine binding affinity
3 | CCOP(=O)(CC(Cc1ccccc1)CP(=O)(OCC)OCC)OCC [Compound 25, Tetraethyl 2-benzyl-1,3-propylidenediphosphonate] | 100 % of control value | 1.060 | 23.2 ± 2.2 | 41.4 ± 1 | activity at 1 µM [4]: 53 ± 2.5%; activity on KCl-induced trachea contraction (in words) ([4]; final concentration 1.0 μM): potent pharmacological activity
4 | CCOP(=O)(CC(CCc1ccccc1)CP(=O)(OCC)OCC)OCC [Compound 26] | 89 % of control value | 1.018 | 18.1 ± 3 | 41.6 ± 1.3 | –
5 | CCOP(=O)(CC(CCCc1ccccc1)CP(=O)(OCC)OCC)OCC [Compound 27] | 95 % of control value | 0.982 | 25.6 ± 2.2 | 35 ± 4.7 | –
6 | CCOP(=O)(CC(Cc1ccc(Cl)cc1)CP(=O)(OCC)OCC)OCC [Compound 30] | 99 % of control value | 1.003 | 17 | 34.4 ± 5.1 | activity at 1 µM [4]: 90%
7 | CCOP(=O)(CC(CCOc1ccccc1)CP(=O)(OCC)OCC)OCC [Compound 33] | – | – | 13.2 | 16 ± 0.6 | –
8 | CCOP(=O)(CC(Cc1cc(OC)c(OC)c(OC)c1)CP(=O)(OCC)OCC)OCC [Compound 36] | 100 % of control value | 0.966 | 39.9 ± 1.6 | – | –
9 | CCCOP(=O)(CC(CCOc1ccccc1)CP(=O)(OCCC)OCCC)OCCC [Compound 52] | – | – | – | – | Specifically bound [^3 H]-PN-200 110 % of control value [5]: 9 % of control value; Bound ^3 H at 1.0 μM / Bound ^3 H at 0.1 μM [5]: 0.227
10 | CCCCOP(=O)(CC(CCOc1cc(C)ccc1C)CP(=O)(OCCCC)OCCCC)OCCCC [Compound 77] | – | – | – | – | Specifically bound [^3 H]-PN-200 110 % of control value [5]: 19 % of control value; Bound ^3 H at 1.0 μM / Bound ^3 H at 0.1 μM [5]: 0.337
11 | CCCCOP(=O)(CC(Cc1cc(OC)c(OC)c(OC)c1)CP(=O)(OCCCC)OCCCC)OCCCC [Compound 82] | 90 % of control value | 0.886 | 40.1 ± 3.2 | – | activity at 1 µM [4]: 80 ± 4%; hypotensive activity (in words) ([1]; acute i.v., Table 4): hypotensive activity superior to that of classical hypotensive drugs and of the calcium antagonists used as references
12 | CCCCOP(=O)(CC(CCCc1ccc([N+](=O)[O-])cc1[N+](=O)[O-])CP(=O)(OCCCC)OCCCC)OCCCC [Compound 98] | – | – | – | – | Specifically bound [^3 H]-PN-200 110 % of control value [5]: 19 % of control value; Bound ^3 H at 1.0 μM / Bound ^3 H at 0.1 μM [5]: 0.780
